Laboratory results taken from US12070457B2, “Substituted pyridines, pyridazines, pyrimidines, and 1,2,3-triazines as bruton's tyrosine kinase inhibitors” (HUTCHISON MEDIPHARMA LIMITED, priority 2020, dated 2024).

Experiments:
[1] = Stability test in liver microsomes (rat); type: in vitro ADME; conditions: 1 μM compound; for stability in rat liver microsomes compared with reference GDC-0853: 0.5 mg/mL liver microsomes, 30 minutes incubation; for RLM, percentage of remaining compound after 30 minutes of incubation: rat liver microsomes
Text: (§1) Example 5 Stability Test in Liver Microsomes
(§2) Both male CD-1 mouse pooled liver microsomes and male SD rat pooled liver microsomes were purchased from BioreclamationIVT Corporation, USA.
(§3) Phenacetin, glucose-6-phosphate dehydrogenase (G-6-PDH) and nicotinamide adenine dinucleotide phosphate (NADP) were all purchased from Sigma-Aldrich Corporation, USA. Glucose-6-phosphate (G-6-P) was purchased from Shanghai Eybridge Chemical Technology Co., Ltd.
(§4) Ten mM test compound stock solution: a certain amount of test compound was weighed, and dissolved with an appropriate volume of DMSO to prepare a stock solution with a concentration of 10 mM for use.
(§5) Reaction stopping solution: an appropriate amount of internal standard compound phenacetin was dissolved in acetonitrile to prepare a reaction stopping solution with a concentration of 1000 ng/mL for use at room temperature.
(§6) The test compound stock solution was diluted with an organic solvent (usually a mixture of acetonitrile, methanol and water with various ratios, depending on the solubility of the compound, if necessary, 1 N hydrochloric acid or 1 N sodium hydroxide would be added to facilitate solubilization) to the 0.1 mM (the final concentration of the compound in the reaction system was 1 μM) and the concentration percentage of the organic solvents in the incubation system no more than 1% (wherein the percentage of DMSO was required to be no more than 0.1%). An appropriate amount of 100 mM NADP, 500 mM G-6-P and 100 Unit/mL G-6-PDH were mixed and diluted with ultrapure water (the final system contains 1 mM NADP, 5 mM G-6-P and 1 Unit/mL G-6-PDH), pre-incubated in a 37° C. water bath for 10 minutes and then placed on ice for use as a NADPH regeneration solution. 20 mg/mL liver microsomes solution and 200 mM phosphate buffer was mixed, and diluted with ultrapure water to give a liver microsomes solution containing 2.5 mg/mL liver microsomes (the final concentration of the reaction system is 0.5 mg/mL) and 50 mM phosphate buffer. The diluted liver microsomes solution was mixed with 0.1 mM compound solution, a mixture of 100 mM EDTA, 300 mM MgCl2 solution, 200 mM phosphate buffer (the final system was 3 mM MgCl2, 1 mM EDTA and 50 mM phosphate buffer) and water in an appropriate volume was added. Finally, the NADPH regeneration solution was added, then the reaction solution was placed in a 37° C. water bath to start the reaction (the reaction time was 30 minutes), and the reaction was stopped by adding the ice-cold acetonitrile reaction stopping solution containing the internal standard. The 0-minute sample was not incubated in a 37° C. water bath, and its difference from the 30-minute sample further lies in that the ice-cold acetonitrile reaction stopping solution containing the internal standard was added first, and then the NADPH regeneration solution was added. The sample added with the reaction stopping internal standard solution was vortexed and mixed well, and then centrifuged at 4400 rpm for 10 minutes. The supernatant was taken and diluted ten times with 50% methanol for LC-MS/MS analysis.
(§7) LC-MS/MS was used to determine the concentration of the compound in the sample. The percentage of the remaining compound after 30 minutes of incubation comparing with that in the 0-minute sample was calculated using the peak area ratio of the compound to the internal standard as an indicator, to evaluate the metabolic stability of the compound.
(§8) Instrument: API4500, API4000 or LTQ Mass Spectrometer; the liquid phase is UHPLC system (Shimadzu LC-30 AD, model Nexra X2) including liquid delivery unit, column thermostat, detector and autosampler; or Agilent 1200 Binary Pump series HPLC and CTC Autosampler.
(§9) Chromatographic column: Waters XSELECT Hss T3 C18 (2.5 μm, 2.1×50 mm) or […] (5 μm, 2.0×50 mm)
(§10) Mobile phase: • A: water with 0.1% FA (formic acid) (with or without 0.1% ACN (acetonitrile)) • B: acetonitrile with 0.1% FA (formic acid).

[2] = Stability test in liver microsomes (mouse); type: in vitro ADME; conditions: 1 μM compound; for stability in mouse liver microsomes compared with reference GDC-0853: 0.5 mg/mL liver microsomes, 30 minutes incubation; for MLM, percentage of remaining compound after 30 minutes of incubation: mouse liver microsomes
Text: as §1, §2, §3, §4, §5, §6, §7, §8, §9, §10

| SMILES | stability in rat liver microsomes compared with reference GDC-0853 [1] | RLM, percentage of remaining compound after 30 minutes of incubation [1] | stability in mouse liver microsomes compared with reference GDC-0853 [2] | MLM, percentage of remaining compound after 30 minutes of incubation [2] |
| --- | --- | --- | --- | --- |
| C[C@H]1CN(C2COC2)CCN1c1ccc(Nc2cc(-c3ccnc(-n4ccn5c6c(cc5c4=O)CCC6)c3CO)cn(C)c2=O)nc1 [Compound 64] | better than that of the reference GDC-0853 | 92.1% | better than that of the reference GDC-0853 | 95.6% |
| CC1CCc2cc3c(=O)n(-c4nccc(-c5cc(Nc6ccc(N7CCN(C8COC8)C[C@@H]7C)cn6)c(=O)n(C)c5)c4CO)ccn3c2C1 (mixture of isomers) [Compound 78] | better than that of the reference GDC-0853 | 91.8% | better than that of the reference GDC-0853 | 83.4% |
| C[C@H]1CN(C2COC2)CCN1c1ccc(Nc2cc(-c3ccnc(-n4ccn5c6c(cc5c4=O)CCC(F)(F)C6)c3CO)cn(C)c2=O)nc1 [Compound 56] | better than that of the reference GDC-0853 | 93.7% | better than that of the reference GDC-0853 | 89.5% |
| C[C@H]1CN(C2COC2)CCN1c1ccc(Nc2cc(-c3ccnc(-n4ccn5c6c(cc5c4=O)CC(F)(F)CC6)c3CO)cn(C)c2=O)nc1 [Compound 58] | better than that of the reference GDC-0853 | ~100% | better than that of the reference GDC-0853 | 97.1% |
| C[C@H]1CN(C2COC2)CCN1c1cnc(Nc2cc(-c3ccnc(-n4ccn5c6c(cc5c4=O)CC(C)(C)C6)c3CO)cn(C)c2=O)nc1 [Compound 44] | better than that of the reference GDC-0853 | 97.1% | better than that of the reference GDC-0853 | 93.1% |
| C[C@H]1CN(C2COC2)CCN1c1ccc(Nc2cc(-c3ccnc(-n4ccn5c(cc6cc(F)ccc65)c4=O)c3CO)cn(C)c2=O)nc1 [Compound 75] | better than that of the reference GDC-0853 | 84.0% | better than that of the reference GDC-0853 | 83.0% |
| Cn1cc(-c2ccnc(-n3ccn4c5c(cc4c3=O)CC(C)(C)C5)c2CO)cc(Nc2ccc(N3CCN(C4COC4)CC3)cn2)c1=O [Compound 9] | better than that of the reference GDC-0853 | 89.5% | better than that of the reference GDC-0853 | 95.7% |
| C[C@@H]1CN(c2ccc(Nc3cc(-c4ccnc(-n5ccn6c7c(cc6c5=O)CCC7)c4CO)cn(C)c3=O)nc2)[C@@H](C)CN1C1COC1 [Compound 2, 2-(5-((5-((2S,5R)-2,5-dimethyl-4-(oxetan-3-yl)piperazin-1-yl)pyridin-2-yl)amino)-3′-(hydroxymethyl)-1-methyl-6-oxo-1,6-dihydro-[3,4′-bispyridin]-2′-yl)-7,8-dihydro-2H-cyclopenta[4,5]pyrrolo[1,2-α]pyrazin-1(6H)-one] | better than that of the reference GDC-0853 | 98.9% | better than that of the reference GDC-0853 | 90.5% |
| C[C@H]1CN(C2COC2)CCN1c1ccc(Nc2cc(-c3ccnc(-n4ncn5c6c(cc5c4=O)CC(C)(C)C6)c3CO)cn(C)c2=O)nc1 [Compound 79] | better than that of the reference GDC-0853 | ~100% | better than that of the reference GDC-0853 | ~100% |
| C[C@H]1CN(C2COC2)CCN1c1ccc(Nc2cc(-c3ccnc(-n4cnn5c6c(cc5c4=O)CC(C)(C)C6)c3CO)cn(C)c2=O)nc1 [Compound 63] | better than that of the reference GDC-0853 | 89.6% | better than that of the reference GDC-0853 | 85.8% |
| C[C@H]1CN(C2COC2)CCN1c1ccc(Nc2cc(-c3ccnc(-n4ccn5c(cc6ccccc65)c4=O)c3CO)cn(C)c2=O)nc1 [Compound 74] | better than that of the reference GDC-0853 | 87.7% | better than that of the reference GDC-0853 | 97.5% |
